This is an account of results in ChEMBL document CHEMBL6109103, “Dodecapeptides derived from human cathelicidin with potent activity against carbapenem-resistant Acinetobacter baumannii” (Eur J Med Chem, 2025).

Converted amounts (≈) assume the structure as drawn. The source made the active and inactive calls. The calls are words filed in the database; no cut-off is given here. Positions of bridges follow the written chain, without caps; N, C: chain ends. Non-standard residues stand in square brackets, D forms with d. Residues, ends and D or L forms follow the SMILES beside them. S5 = C=CCCC[C@](C)(N)C(=O)O A value given as a limit tells only on which side of the number the result lay.

Data set [1] concerns Acinetobacter baumannii. The data set is described as follows: Antibacterial activity against carbapenem-resistant Acinetobacter baumannii clinical isolate 5 assessed as inhibition of bacterial growth incubated for 24 hrs by broth dilution assay. It counts as functional. On the technique in general: Dilution methods test growth across graded concentrations, often in twofold steps.

Data set [2] relates to Acinetobacter baumannii. The data set is described as follows: Antibacterial activity against carbapenem-resistant Acinetobacter baumannii clinical isolate 1 assessed as inhibition of bacterial growth incubated for 24 hrs by broth dilution assay. The data set is classed as functional.
Data set [3] in a line: Binding affinity to gram negative bacterial lipid II assessed as dissociation constant by BLI analysis. Set-up: species or system Bacteria.
For data set [4], the system named is Acinetobacter baumannii. The data set is described as follows: Antibacterial activity against carbapenem-resistant Acinetobacter baumannii clinical isolate 4 assessed as inhibition of bacterial growth incubated for 24 hrs by broth dilution assay. The data set is classed as functional.
Data set [5] relates to Acinetobacter baumannii. The data set is described as follows: Antibacterial activity against carbapenem-resistant Acinetobacter baumannii clinical isolate 6 assessed as inhibition of bacterial growth incubated for 24 hrs by broth dilution assay. The data set is classed as functional.
For data set [6], the system named is Acinetobacter baumannii. The data set is described as follows: Antibacterial activity against carbapenem-resistant Acinetobacter baumannii clinical isolate 6 assessed as bacterial killing at 3.16 microg/ml measured for 1 hr in presence of NaCl. The data set is classed as functional, organism-based. The note with it: dose 3.16 µg/ml.
In data set [7] the test system is Staphylococcus aureus. The data set is described as follows: Antibacterial activity against Staphylococcus aureus […] assessed as inhibition of bacterial growth incubated for 24 hrs by broth dilution assay. The data set is classed as functional.
The target of a further data set is Lipoteichoic acid. The data set is described as follows: Binding affinity to […] bacterial Lipoteichoic acid assessed as dissociation constant by BLI analysis. Set-up: species or system Bacteria.
Data set [8] concerns Acinetobacter baumannii. The data set is described as follows: Antibacterial activity against carbapenem-resistant Acinetobacter baumannii clinical isolate 8 assessed as inhibition of bacterial growth incubated for 24 hrs by broth dilution assay. The data set is classed as functional.
Data set [9] deals with Acinetobacter baumannii. The data set is described as follows: Antibacterial activity against Acinetobacter baumannii ATCC 19606 assessed as inhibition of bacterial growth incubated for 24 hrs by broth dilution assay. It counts as functional.
The subject of data set [10] is Acinetobacter baumannii. The data set is described as follows: Antibacterial activity against multidrug-resistant Acinetobacter baumannii assessed as inhibition of bacterial growth incubated for 24 hrs by broth dilution assay. The data set is classed as functional.
For data set [11], the system named is Acinetobacter baumannii. The data set is described as follows: Antibacterial activity against carbapenem-resistant Acinetobacter baumannii clinical isolate 2 assessed as inhibition of bacterial growth incubated for 24 hrs by broth dilution assay. It counts as functional.
The test system of data set [12] is Staphylococcus aureus. The data set is described as follows: Antibacterial activity against Methicillin-resistant Staphylococcus aureus ATCC 43300 assessed as inhibition of bacterial growth incubated for 24 hrs by broth dilution assay. The data set is classed as functional.
Data set [13] relates to Acinetobacter baumannii. The data set is described as follows: Antibacterial activity against carbapenem-resistant Acinetobacter baumannii clinical isolate 6 assessed as bacterial killing at 3.16 microg/ml measured within 10 mins relative to control. The data set is classed as functional. To be noted: dose 3.16 µg/ml.
The test system of data set [14] is Acinetobacter baumannii. The data set is described as follows: Antibacterial activity against carbapenem-resistant Acinetobacter baumannii clinical isolate 7 assessed as inhibition of bacterial growth incubated for 24 hrs by broth dilution assay. It counts as functional.
A further data set relates to HaCaT. The data set is described as follows: Cytotoxicity against human HaCaT cells assessed as cell death up to 100 microg/ml measured upto 24 hrs. The data set is classed as toxicity, cell-based. To be noted: dose < 100 µg/ml.
Data set [15] deals with Acinetobacter baumannii. The data set is described as follows: Antibacterial activity against carbapenem-resistant Acinetobacter baumannii clinical isolate 3 assessed as inhibition of bacterial growth incubated for 24 hrs by broth dilution assay. The data set is classed as functional.

For orientation: MIC means the least concentration at which growth counts as inhibited. Usually Kd stands for the equilibrium constant for the complex coming apart.

Regarding H-KRIVQRIKDFLR-OH, the MIC is 160 µg/mL in the data set with Acinetobacter baumannii [1]; 320 µg/mL with Acinetobacter baumannii [2]; 160 µg/mL in the data set with Acinetobacter baumannii [4]; 160 µg/mL in the data set with Acinetobacter baumannii [5]; greater than 320 µg/mL in the data set on Staphylococcus aureus [7]; 160 µg/mL with Acinetobacter baumannii [8]. Moreover, the minimal inhibitory concentration (MIC) in the data set with Acinetobacter baumannii [9] was greater than 320 µg/mL; in the data set on Acinetobacter baumannii [10], 160 µg/mL; in the data set on Acinetobacter baumannii [11], 320 µg/mL; in the data set with Staphylococcus aureus [12] it was greater than 320 µg/mL; in the data set with Acinetobacter baumannii [14], 160 µg/mL; with Acinetobacter baumannii [15] it was 320 µg/mL. The figures for the Kd (in [3]; at Lipoteichoic acid) were 171 nM and 241 nM, respectively. The outcome in the data set with Acinetobacter baumannii [6] was inactive. The Activity with Acinetobacter baumannii [13] is given as 19.5%; in the data set with HaCaT it was “Non-toxic”.
On to `CC[C@H](C)[C@@H]1NC(=O)[C@H](CCCCN)NC(=O)[C@H]([C@@H](C)CC)NC(=O)[C@H](CCCNC(=N)N)NC(=O)[C@@](C)(NC(=O)[C@@H](NC(=O)[C@@H](NC(=O)[C@H](CCCNC(=N)N)NC(=O)[C@@H](N)CCCCN)[C@@H](C)CC)C(C)C)CCC/C=C\CCC[C@@](C)(C(=O)O)NC(=O)[C@H](CC(C)C)NC(=O)[C@H](Cc2ccccc2)NC1=O` (H-KRIV[S5]RIKIFL[S5]-OH; staple (Z) 5-12), for which the minimum inhibitory concentration (MIC) was greater than 320 µg/mL with Staphylococcus aureus [7], 80 µg/mL (≈ 52.1 µM) with Acinetobacter baumannii [9], 40 µg/mL (≈ 26 µM) in the data set with Acinetobacter baumannii [10] and 80 µg/mL (≈ 52.1 µM) with Staphylococcus aureus [12].
Take H-KRIVKRIKRFLR-OH: the MIC in the data set with Staphylococcus aureus [7] is greater than 320 µg/mL; in the data set on Acinetobacter baumannii [9], 80 µg/mL; in the data set on Acinetobacter baumannii [10] it was 80 µg/mL; with Staphylococcus aureus [12], greater than 320 µg/mL.
With H-KRIVKRIKKFLR-OH, the MIC is greater than 320 µg/mL with Staphylococcus aureus [7], 160 µg/mL with Acinetobacter baumannii [9], greater than 320 µg/mL with Acinetobacter baumannii [10] and 160 µg/mL in the data set on Staphylococcus aureus [12].
